Earlier results on one substance are cited in patent US20240115593A1, “METHISOPRINOL COMPOSITIONS” (priority 2020, published 2024).

The conditions of this data set: water solution without additional 1-dimethylaminopropan-2-ol 4-acetamidobenzoate, stored at +20° C. to +2° C.

Regarding Methisoprinol, the “time after which Methisoprinol crystallizes out” value is reported as 6 days.
